IC50 data for 23 molecules are collected here from patent publication US10011616B2, “Boron-containing small molecules as antiprotozoal1 agents” (MMV MEDICINES FOR MALARIA VENTURE, priority 2015, dated 2018).

Counter-ions that a name gives are not always drawn.

Test [1] has as its system 3D7 strain of Plasmodium falciparum. In words: In vitro activity against 3D7 strain of Plasmodium falciparum ([3H]-hypoxanthine incorporation assay). It is filed as cell-based. The conditions noted are these: Erythrocyte, 48 h, P. falciparum 3D7 in human erythrocytes, 2 d, growth inhibition, read-out: IC50: 1 Org. Growth P. falciparum 3D7, 2 d (LPS_00570). As for the experimental part: In Vitro Activity Against Plasmodium falciparum a) Against 3D7 Strain of Plasmodium falciparum Inhibition of 3D7 strain parasites was assessed using the [^3H]-hypoxanthine incorporation assay (Desjardins, et al. Antimicrob. Agents Chemother. 1979, 16, 710-718). Briefly, parasites were cultured in human erythrocytes (from the Spanish Red Cross blood bank) using RPMI-1640 culture media (Gibco) supplemented with 0.5% Albumax II (Invitrogen), 2% D-sucrose (Sigma-Aldrich), 0.3% glutamine (Sigma-Aldrich), and 5 mM hypoxanthine (Sigma-Aldrich). Cultures were maintained at 37° C. at an atmosphere of 5% O2, 5% CO2, and […]. To assess inhibition, asynchronous parasite cultures with 0.5% parasitemia and 2% hematocrit were exposed to 3-fold serial dilutions of test compounds for 24 hours in 96 well plate cultures (Costar #3894). After 24 hours, [^3H]-hypoxanthine was added, plates were incubated for an additional 24 hours, and parasites were harvested on glass fiber filters (Wallac #1450-421) using a cell harvester 96 (TOMTEC, Perkin Elmer). Filters were dried on scintillator sheets (MeltiLex A, PerkinElmer #1450-441) to determine incorporation of [^3H]-hypoxanthine. Radioactivity was measured using a microbeta counter (Perkin Elmer). Data are normalized using the incorporation of the positive control (infected erythrocytes without drug). IC50 values were determined using Excel and Grafit 5 software. Values were determined from at least three independent experiments, and standard deviations were calculated.

Test [2] relates to W2 strain of Plasmodium falciparum. In words: In vitro activity against W2 strain of Plasmodium falciparum (YOYO-1 flow cytometry). It is filed as cell-based. To be noted: Erythrocyte, 48 h, P. falciparum W2 in human erythrocytes, 2 d, growth inhibition, read-out: IC50: 1 Org. Growth P. falciparum W2, 2 d (LPS_00451). As for the experimental part: In Vitro Activity Against Plasmodium falciparum
b) Against W2 Strain of Plasmodium falciparum
W2 strain P. falciparum parasites were cultured in human erythrocytes and RPMI-1640 culture media with either 10% human serum or 0.5% Albumax serum substitute under 3% O2, 5% CO2, and 92% N2. Parasites synchronized to ring stage by treatments with 5% D-sorbitol were cultured with serial dilutions of benzoxaboroles from 5 to 10 mM stocks in 96 well microplate cultures including 200 μL of media/well, 2% hematocrit, and 1% parasitemia. At the completion of 48 h incubations, when untreated cultures contained new rings, parasites were fixed with 2% formaldehyde for 48 h, and 5 μL aliquots were transferred to another 96 well plate containing 150 μL/well of staining solution (100 mM NH4Cl, 0.1% Triton X-100, and 1 nM YOYO-1 in PBS). Parasites per erythrocyte were then determined by flow cytometry from plots of forward scatter against fluorescence (excitation 488 nm, emission 520 nm) using a FacSort flow cytometer (Beckton Dickinson) equipped with an AMS Loader (Cytek Development). All values were normalized to percent control activity, and IC50s were calculated using the Prism 3.0 program (GRAPHPAD Software). Goodness of fit was assessed by R^2 values, and meaningful dose-response curves yielded R^2 values >0.95.
(In flow cytometry, cells or beads pass a laser one at a time.)

Usually IC50 stands for the midpoint of a concentration-inhibition curve. `Cc1c(Oc2cnc(C(=O)NC(CO)C(C)C)cn2)ccc2c1B(O)OC2` (stereo not shown) [Example 7, N-(1-hydroxy-3-methylbutan-2-yl)-5-(1-hydroxy-7-methyl-1,3-dihydrobenzo[c][1,2]oxaborol-6-yloxy)pyrazine-2-carboxamide]: the IC50 in test [1] came out at 96.5 nM; in test [2] it was 115 nM.
The matching figures for `Cc1c(Oc2cnc(C(=O)N3CCNC[C@H]3CO)cn2)ccc2c1B(O)OC2` [Example 50, (S)-(5-(1-hydroxy-7-methyl-1,3-dihydrobenzo[c][1,2]oxaborol-6-yloxy)pyrazin-2-yl) (2-(hydroxymethyl)piperazin-1-yl)methanone Hydrochloric Acid Salt]: 171 nM and 98.2 nM.
In the same order, the values of `Cc1c(Oc2cnc(C(=O)NCCO)cn2)ccc2c1B(O)OC2` [Example 1, 5-((1-hydroxy-7-methyl-1,3-dihydrobenzo[c][1,2]oxaborol-6-yl)oxy)-N-(2-hydroxyethyl)pyrazine-2-carboxamide] are 1080 nM and 372 nM.
`Cc1c(Oc2cnc(C(=O)N3CC(O)(C4CC4)C3)cn2)ccc2c1B(O)OC2` [Example 55, (3-cyclopropyl-3-hydroxyazetidin-1-yl) (5-((1-hydroxy-7-methyl-1,3-dihydrobenzo[c][1,2]oxaborol-6-yl)oxy)pyrazin-2-yl)methanone]: the results for the IC50 in test [1] and in test [2] were 234 nM and 51.7 nM, respectively.
In the same order, the values of `COCCNC(=O)c1cnc(Oc2ccc3c(c2C)B(O)OC3)cn1` [Example 2, 5-(1-hydroxy-7-methyl-1,3-dihydrobenzo[c][1,2]oxaborol-6-yloxy)-N-(2-methoxyethyl)pyrazine-2-carboxamide] are 644 nM and 788 nM.
The matching figures for `Cc1c(Oc2cnc(C(=O)N[C@@H](CO)C(C)C)cn2)ccc2c1B(O)OC2` [Example 25, (R)—N-(1-hydroxy-3-methylbutan-2-yl)-5-(1-hydroxy-7-methyl-1,3-dihydrobenzo[c][1,2]oxaborol-6-yloxy)pyrazine-2-carboxamide]: 466 nM and 149 nM.
For `Cc1c(Oc2cnc(C(=O)N[C@H](CO)CCC(F)(F)F)cn2)ccc2c1B(O)OC2` [Example 38, (S)-5-(1-hydroxy-7-methyl-1,3-dihydrobenzo[c][1,2]oxaborol-6-yloxy)-N-(5,5,5-trifluoro-1-hydroxypentan-2-yl)pyrazine-2-carboxamide], the IC50 in test [1] was 959 nM; in test [2], 352 nM.
Turning to `Cc1c(Oc2cnc(C(=O)N[C@H](CO)CC(F)(F)F)cn2)ccc2c1B(O)OC2` [Example 34, (S)-5-(1-hydroxy-7-methyl-1,3-dihydrobenzo[c][1,2]oxaborol-6-yloxy)-N-(4,4,4-trifluoro-1-hydroxybutan-2-yl)pyrazine-2-carboxamide], the values for the IC50 in test [1] and in test [2] were 452 nM and 350 nM, respectively.
Consider `Cc1c(Oc2cnc(C(=O)N[C@@H](C)CO)cn2)ccc2c1B(O)OC2` [Example 12, (S)-5-(1-hydroxy-7-methyl-1,3-dihydrobenzo[c][1,2]oxaborol-6-yloxy)-N-(1-hydroxypropan-2-yl)pyrazine-2-carboxamide], for which the 50% inhibitory concentration (IC50) in test [1] is 808 nM; in test [2] it was 844 nM.
As to `Cc1c(Oc2cnc(C(=O)N[C@@H](CO)C3CC3)cn2)ccc2c1B(O)OC2` [Example 24, (R)—N-(1-cyclopropyl-2-hydroethyl)-5-(1-hydroxy-7-methyl-1,3-dihydrobenzo[c][1,2]oxaborol-6-yloxy)pyrazine-2-carboxamide], the IC50 in test [1] was found to be 587 nM; in test [2] it was 492 nM.
For `Cc1c(Oc2cnc(C(=O)NC(CO)C3CC3)cn2)ccc2c1B(O)OC2` (stereo not shown) [Example 22, N-(1-cyclopropyl-2-hydroxyethyl)-5-(1-hydroxy-7-methyl-1,3-dihydrobenzo[c][1,2]oxaborol-6-yloxy)pyrazine-2-carboxamide], the results for the IC50 in test [1] and in test [2] were 1150 nM and 458 nM, respectively.
The matching figures for `Cc1c(Oc2cnc(C(=O)NCC(C)O)cn2)ccc2c1B(O)OC2` (stereo not shown) [Example 9, 5-(1-hydroxy-7-methyl-1,3-dihydrobenzo[c][1,2]oxaborol-6-yloxy)-N-(2-hydroxypropyl)pyrazine-2-carboxamide]: 1100 nM and 1280 nM.
For the molecule `Cc1c(Oc2cnc(C(=O)N[C@@H]3CCC[C@@H]3O)cn2)ccc2c1B(O)OC2` (relative stereo) [Example 49, 5-((1-hydroxy-7-methyl-1,3-dihydrobenzo[c][1,2]oxaborol-6-yl)oxy)-N-(cis-2-hydroxycyclopentyl)pyrazine-2-carboxamide], the IC50 stood at 181 nM in test [1] and 292 nM in test [2].
On to `Cc1c(Oc2cnc(C(=O)N3CC(O)(C(F)(F)F)C3)cn2)ccc2c1B(O)OC2` [Example 58, (3-hydroxy-3-(trifluoromethyl)azetidin-1-yl) (5-((1-hydroxy-7-methyl-1,3-dihydrobenzo[c][1,2]oxaborol-6-yl)oxy)pyrazin-2-yl)methanone], for which the IC50 in test [1] is 13.9 nM; in test [2], 6.6 nM.
In the same order, the values of `CCCC1(O)CN(C(=O)c2cnc(Oc3ccc4c(c3C)B(O)OC4)cn2)C1` [Example 56, (3-hydroxy-3-propylazetidin-1-yl) (5-((1-hydroxy-7-methyl-1,3-dihydrobenzo[c][1,2]oxaborol-6-yl)oxy)pyrazin-2-yl)methanone] are 137 nM and 15.9 nM.
In the same order, the values of `CCC(CO)NC(=O)c1cnc(Oc2ccc3c(c2C)B(O)OC3)cn1` (stereo not shown) [Example 18, 5-(1-hydroxy-7-methyl-1,3-dihydrobenzo[c][1,2]oxaborol-6-yloxy)-N-(1-hydroxybutan-2-yl)pyrazine-2-carboxamide] are 725 nM and 622 nM.
The matching figures for `CCC[C@H](CO)N(C)C(=O)c1cnc(Oc2ccc3c(c2C)B(O)OC3)cn1` [Example 52, (R)-5-(1-hydroxy-7-methyl-1,3-dihydrobenzo[c][1,2]oxaborol-6-yloxy)-N-(1-hydroxypentan-2-yl)-N-methylpyrazine-2-carboxamide]: 252 nM and 48.1 nM.
For `Cc1c(Oc2cnc(C(=O)N3CCC(C)(O)C3)cn2)ccc2c1B(O)OC2` (racemic) [Example 40, (3-hydroxy-3-methylpyrrolidin-1-yl) (5-((1-hydroxy-7-methyl-1,3-dihydrobenzo[c][1,2]oxaborol-6-yl)oxy)pyrazin-2-yl)methanone], the IC50 in test [1] was found to be 314 nM; in test [2], 139 nM.
In the same order, the values of `Cc1c(Oc2cnc(C(=O)N[C@H](CO)C(C)C)cn2)ccc2c1B(O)OC2` [Example 23, (S)—N-(1-hydroxy-3-methylbutan-2-yl)-5-(1-hydroxy-7-methyl-1,3-dihydrobenzo[c][1,2]oxaborol-6-yloxy)pyrazine-2-carboxamide] are 1990 nM and 774 nM.
For `CCC[C@H](CO)NC(=O)c1cnc(Oc2ccc3c(c2C)B(O)OC3)cn1` [Example 14, (R)-5-(1-hydroxy-7-methyl-1,3-dihydrobenzo[c][1,2]oxaborol-6-yloxy)-N-(1-hydroxypentan-2-yl)pyrazine-2-carboxamide], the IC50 in test [1] was determined as 201 nM; in test [2], 161 nM.
For `Cc1c(Oc2cnc(C(=O)N[C@H](C)CO)cn2)ccc2c1B(O)OC2` [Example 11], the half-maximal inhibitory concentration (IC50) in test [1] came to 848 nM; in test [2], 944 nM.
The matching figures for `CCC[C@@H](NC(=O)c1cnc(Oc2ccc3c(c2C)B(O)OC3)cn1)C(C)(C)O` [Example 43, (R)—N-(2-hydroxy-2-methylhexan-3-yl)-5-((1-hydroxy-7-methyl-1,3-dihydrobenzo[c][1,2]oxaborol-6-yl)oxy)pyrazine-2-carboxamide]: 553 nM and 260 nM.
In the same order, the values of `CCC1(O)CN(C(=O)c2cnc(Oc3ccc4c(c3C)B(O)OC4)cn2)C1` [Example 54, (3-ethyl-3-hydroxyazetidin-1-yl)(5-((1-hydroxy-7-methyl-1,3-dihydrobenzo[c][1,2]oxaborol-6-yl)oxy)pyrazin-2-yl)methanone] are 87 nM and 28.9 nM.
